Laboratory results reported in patent US20170022171A1, “2,5-DISUBSTITUTED CYCLOPENTANECARBOXYLIC ACIDS AND THEIR USE” (Bayer Pharma Aktiengesellschaft, priority 2014, published 2017).

How the values were obtained:
Type in all cases: biochemical
MMP-9 = biological target: T1, MMP-9 (Homo sapiens, UniProt P14780); test: In vitro MMP-9 inhibition test
T1 construct: purchased R&D Systems 911-MP
Excerpt: (§1) The MMP-mediated amidolytic cleavage of a suitable peptide substrate leads to an increase in fluorescent light here too. The signal intensity of the fluorescent light is directly proportional to the enzyme activity. The active concentration of a test compound at which half the enzyme is inhibited (50% signal intensity of the fluorescent light) is reported as the IC50 value.
(§2) Recombinant MMP-9 (from R&D Systems, 911-MP) is chemically activated in accordance with the manufacturer's instructions using APMA. 1 μl of the test compound to be analysed (as a solution in DMSO, suitable concentrations, for example, 1 nM to 30 μM) is pipetted into 24 μl of activated enzyme (final concentration, for example, 0.1 nM) in reaction buffer (50 mM Tris/HCl pH 7.5, 10 mM CaCl2, 150 mM NaCl, 0.05% Brij®-35) in a white 384-hole microtiter plate (MTP). The enzymatic reaction is started by adding the intramolecularly quenched Mca-Pro-Leu-Gly-Leu-Dpa(Dnp)-Ala-Arg-NH2 substrate (final concentration, for example, 10 μM; R&D Systems, ES-001), so as to result in a total test volume of 50 μl. The course of the MMP-9 reaction is measured by measuring the fluorescence intensity (excitation 320 nm, emission 410 nm) over a suitable period of time (for example over 120 min at a temperature of 32° C.).

MMP-1 = biological target: T2, MMP-1 (Homo sapiens, UniProt P03956); test: In vitro MMP-1 inhibition test
T2 construct: purchased R&D Systems 901-MP
T2 sequence (P03956 100-469): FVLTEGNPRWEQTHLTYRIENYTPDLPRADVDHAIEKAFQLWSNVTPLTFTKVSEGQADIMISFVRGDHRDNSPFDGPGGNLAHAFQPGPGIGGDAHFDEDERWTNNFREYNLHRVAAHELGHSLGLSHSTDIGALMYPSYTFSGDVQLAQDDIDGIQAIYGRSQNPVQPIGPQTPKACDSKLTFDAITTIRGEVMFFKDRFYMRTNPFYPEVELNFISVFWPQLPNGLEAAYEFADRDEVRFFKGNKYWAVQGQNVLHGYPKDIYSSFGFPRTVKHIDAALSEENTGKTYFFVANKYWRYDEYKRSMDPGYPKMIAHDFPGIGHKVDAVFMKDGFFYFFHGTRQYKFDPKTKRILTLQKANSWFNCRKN
Excerpt: as §1
as §2, with “MMP-1” for “MMP-9”, “901-MP)” for “911-MP)”, “2” for “0.1”

[1] = biological target: T3, human macrophage elastase (HME/hMMP-12) (Homo sapiens, UniProt P39900); test: In vitro HME inhibition test (standard or high-sensitivity); conditions: in some cases mean values
T3 construct: 0.5 nM HME; purchased R&D Systems 917-MP
T3 sequence (P39900 106-470): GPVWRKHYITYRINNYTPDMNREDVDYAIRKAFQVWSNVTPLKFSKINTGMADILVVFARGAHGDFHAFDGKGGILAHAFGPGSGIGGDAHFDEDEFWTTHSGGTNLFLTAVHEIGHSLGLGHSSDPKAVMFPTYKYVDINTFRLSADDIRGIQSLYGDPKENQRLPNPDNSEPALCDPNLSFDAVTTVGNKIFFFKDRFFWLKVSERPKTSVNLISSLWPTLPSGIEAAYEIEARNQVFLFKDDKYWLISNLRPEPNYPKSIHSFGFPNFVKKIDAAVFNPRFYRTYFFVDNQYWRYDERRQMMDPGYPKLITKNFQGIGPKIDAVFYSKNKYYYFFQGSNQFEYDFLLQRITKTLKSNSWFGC
How it was run: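 Fluorogenic assay: 0.5 nM autoactivated HME with 5 µM Mca-Pro-Leu-Gly-Leu-Glu-Glu-Ala-Dap(Dnp)-NH2 in HEPES pH 7.4 buffer (NaCl, CaCl2, ZnCl2, EDTA, Brij), 2 h at 37 °C; ex 323/em 393 nm. IC50 from fluorescence versus concentration. High-sensitivity format: ~0.05 nM enzyme, ~16 h incubation.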

MMP-14 = biological target: T4, MMP-14 (Homo sapiens, UniProt P50281); test: In vitro MMP-14 inhibition test
T4 construct: purchased R&D Systems 918-MP
Excerpt: as §1
Recombinant MMP-14 (from R&D Systems, 918-MP) is enzymatically activated in accordance with the manufacturer's instructions using recombinant furin (from R&D Systems, 1503-SE). 1 μl of the test compound to be analysed (as a solution in DMSO, suitable concentrations e.g. 1 nM to 30 μM) is pipetted into 24 μl of activated enzyme (final concentration e.g. 0.5 nM) in reaction buffer (50 mM Tris/HCl pH 7.5, 10 mM CaCl2, 150 mM NaCl, 0.05% Brij®-35) in a white 384-hole microtiter plate (MTP). The enzymatic reaction is started by adding the intramolecularly quenched Mca-Lys-Pro-Leu-Gly-Leu-Dpa(Dnp)-Ala-Arg-NH2 substrate (final concentration, for example, 5 μM; R&D Systems, ES-010), so as to result in a total test volume of 50 The course of the MMP-14 reaction is measured by measuring the fluorescence intensity (excitation 320 nm, emission 410 nm) over a suitable period of time (for example over 120 min at a temperature of 32° C.).

T1 sequence (P14780 107-707 limits assumed): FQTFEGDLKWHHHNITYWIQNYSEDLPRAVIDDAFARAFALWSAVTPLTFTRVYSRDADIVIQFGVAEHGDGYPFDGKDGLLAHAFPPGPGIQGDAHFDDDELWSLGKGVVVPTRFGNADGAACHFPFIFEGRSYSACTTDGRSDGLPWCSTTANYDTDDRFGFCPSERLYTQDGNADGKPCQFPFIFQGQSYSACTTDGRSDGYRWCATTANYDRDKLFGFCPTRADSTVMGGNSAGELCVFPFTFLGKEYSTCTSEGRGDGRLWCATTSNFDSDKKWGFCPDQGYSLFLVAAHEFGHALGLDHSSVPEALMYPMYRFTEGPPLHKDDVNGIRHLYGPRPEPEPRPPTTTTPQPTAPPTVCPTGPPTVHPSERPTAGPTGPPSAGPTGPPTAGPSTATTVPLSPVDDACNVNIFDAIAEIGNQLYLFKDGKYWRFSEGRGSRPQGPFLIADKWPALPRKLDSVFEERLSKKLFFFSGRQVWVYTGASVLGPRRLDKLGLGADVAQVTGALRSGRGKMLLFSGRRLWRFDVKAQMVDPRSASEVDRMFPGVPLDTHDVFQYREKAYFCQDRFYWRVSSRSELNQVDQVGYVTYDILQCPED

| Structure (SMILES) | IC50 (MMP-9) | IC50 (MMP-1) | IC50 [1] | IC50 (MMP-14) |
| --- | --- | --- | --- | --- |
| Cc1ccc2nnn(C[C@@H]3CC[C@H](C(=O)c4ccc(OCc5ccccc5)cc4)[C@H]3C(=O)O)c(=O)c2c1 (racemic) [Example 91, (+/−)-(1RS,2RS,5SR)-2-[4-(Benzyloxy)benzoyl]-5-[(6-methyl-4-oxo-1,2,3-benzotriazin-3(4H)-yl)methyl]cyclopentanecarboxylic acid] | 21 nM | 5700 nM | 0.074 nM | 68 nM |
| Cc1cccc(COc2ccc(C(=O)[C@H]3CC[C@@H](Cn4nnc5ccc(C)cc5c4=O)[C@@H]3C(=O)O)cc2)c1 (racemic) [Example 97, (+/−)-(1RS,2RS,5SR)-2-{4-[(3-Methylbenzyl)oxy]benzoyl}-5-[(6-methyl-4-oxo-1,2,3-benzotriazin-3(4H)-yl)methyl]cyclopentanecarboxylic acid] | 740 nM | > 40000 nM | 0.4 nM | 870 nM |
| Cc1ccc2nnn(C[C@@H]3CC[C@H](C(=O)c4ccc(OCc5cccc(C(F)(F)F)c5)cc4)[C@H]3C(=O)O)c(=O)c2c1 (racemic) [Example 100, (+/−)-(1RS,2SR,5RS)-2-[(6-Methyl-4-oxo-1,2,3-benzotriazin-3(4H)-yl)methyl]-5-(4-{[3-(trifluoromethyl)benzyl]oxy}benzoyl)cyclopentanecarboxylic acid] | 160 nM | > 40000 nM | 0.08 nM | 720 nM |
| CCCCCOc1ccc(C(=O)[C@H]2CC[C@@H](Cn3nnc4ccc(C)cc4c3=O)[C@@H]2C(=O)O)cc1 (racemic) [Example 123, (+/−)-(1RS,2SR,5RS)-2-[(6-Methyl-4-oxo-1,2,3-benzotriazin-3(4H)-yl)methyl]-5-[4-(pentyloxy)benzoyl]cyclopentanecarboxylic acid] | 94 nM | 24000 nM | 0.088 nM | 490 nM |
| Cc1cccc(COc2ccc(C(=O)[C@@H]3CC[C@H](Cn4nnc5ccc(C(F)(F)F)cc5c4=O)[C@H]3C(=O)O)cc2)c1 (single isomer, unassigned) [Example 16, (+)-(1RS,2RS,5SR)-2-{4-[(3-Methylbenzyl)oxy]benzoyl}-5-{[4-oxo-6-(trifluoromethyl)-1,2,3-benzotriazin-3(4H)-yl]methyl}cyclopentanecarboxylic acid] | 440 nM | 7100 nM | 0.064 nM | 320 nM |
| O=C(O)[C@@H]1[C@@H](Cn2nnc3ccc(C(F)(F)F)cc3c2=O)CC[C@H]1C(=O)c1ccc(OCc2cccc(Cl)c2)cc1 (single isomer, unassigned) [Example 23, (+)-(1RS,2RS,5SR)-2-{4-[(3-Chlorobenzyl)oxy]benzoyl}-5-{[4-oxo-6-(trifluoromethyl)-1,2,3-benzotriazin-3(4H)-yl]methyl}cyclopentanecarboxylic acid] | 270 nM | 24000 nM | 0.032 nM | 1200 nM |
| O=C(O)[C@@H]1[C@@H](Cn2nnc3ccc(C(F)(F)F)cc3c2=O)CC[C@H]1C(=O)c1ccc(OCc2ccc(Cl)cc2)cc1 (single isomer, unassigned) [Example 25, (+)-(1RS,2RS,5SR)-2-{4-[(4-Chlorobenzyl)oxy]benzoyl}-5-{[4-oxo-6-(trifluoromethyl)-1,2,3-benzotriazin-3(4H)-yl]methyl}cyclopentanecarboxylic acid] | 3 nM | 2300 nM | 0.013 nM | 230 nM |
| O=C(O)[C@@H]1[C@@H](Cn2nnc3ccc(C(F)(F)F)cc3c2=O)CC[C@H]1C(=O)c1ccc(OCc2cccc(N3CCOC3=O)c2)cc1 (single isomer, unassigned) [Example 35, (+)-(1RS,2RS,5SR)-2-(4-{[3-(2-Oxo-1,3-oxazolidin-3-yl)benzyl]oxy}benzoyl)-5-{[4-oxo-6-(trifluoromethyl)-1,2,3-benzotriazin-3(4H)-yl]methyl}cyclopentanecarboxylic acid] | 1400 nM | 2100 nM | 0.013 nM | 170 nM |

The remaining molecules from weak to strong by IC50 (MMP-9), led by results:

| IC50 (MMP-9) | IC50 (MMP-1) | IC50 [1] | IC50 (MMP-14) | Structure (SMILES) |
| --- | --- | --- | --- | --- |
| 1000 nM | 37000 nM | 0.027 nM | 3000 nM | O=C(O)[C@@H]1[C@@H](Cn2nnc3ccc(C(F)(F)F)cc3c2=O)CC[C@H]1C(=O)c1ccc(OCc2cccc(C(F)(F)F)c2)cc1 (single isomer, unassigned) [Example 19, (+)-(1RS,2SR,5RS)-2-{[4-Oxo-6-(trifluoromethyl)-1,2,3-benzotriazin-3(4H)-yl]methyl}-5-(4-{[3-(trifluoromethyl)benzyl]oxy}benzoyl)cyclopentanecarboxylic acid] |
| 150 nM | > 40000 nM | 0.14 nM | 670 nM | Cc1ccc2nnn(C[C@@H]3CC[C@H](C(=O)c4ccc(OCc5cccc(OC(F)(F)F)c5)cc4)[C@H]3C(=O)O)c(=O)c2c1 (racemic) [Example 109, (+/−)-(1RS,2SR,5RS)-2-[(6-Methyl-4-oxo-1,2,3-benzotriazin-3(4H)-yl)methyl]-5-(4-{[3-(trifluoromethoxy)benzyl]oxy}benzoyl)cyclopentanecarboxylic acid] |
| 110 nM | 9700 nM | 0.1 nM | 320 nM | Cc1ccc2nnn(C[C@@H]3CC[C@H](C(=O)c4ccc(OCc5cccc(Cl)c5)cc4)[C@H]3C(=O)O)c(=O)c2c1 (racemic) [Example 103, (+/−)-(1RS,2RS,5SR)-2-{4-[(3-Chlorobenzyl)oxy]benzoyl}-5-[(6-methyl-4-oxo-1,2,3-benzotriazin-3(4H)-yl)methyl]cyclopentanecarboxylic acid] |
| 76 nM | 12000 nM | 0.078 nM | 180 nM | COc1cccc(COc2ccc(C(=O)[C@H]3CC[C@@H](Cn4nnc5ccc(C)cc5c4=O)[C@@H]3C(=O)O)cc2)c1 (racemic) [Example 106, (+/−)-(1RS,2RS,5SR)-2-{4-[(3-Methoxybenzyl)oxy]benzoyl}-5-[(6-methyl-4-oxo-1,2,3-benzotriazin-3(4H)-yl)methyl]cyclopentanecarboxylic acid] |
| 4.4 nM | 3300 nM | 0.018 nM | 150 nM | O=C(O)[C@@H]1[C@@H](Cn2nnc3ccc(C(F)(F)F)cc3c2=O)CC[C@H]1C(=O)c1ccc(OCc2ccc(F)cc2)cc1 (single isomer, unassigned) [Example 13, (+)-(1RS,2RS,5SR)-2-{4-[(4-Fluorobenzyl)oxy]benzoyl}-5-{[4-oxo-6-(trifluoromethyl)-1,2,3-benzotriazin-3(4H)-yl]methyl}cyclopentanecarboxylic acid] |
